Test results: patent US9169254B2, “Spiroimidazolone derivative” (Chugai Seiyaku Kabushiki Kaisha, priority 2009, dated 2015)

Biological target: T1, human PTH1 receptor (Homo sapiens, UniProt Q03431)
T1 sequence (Q03431 27-593): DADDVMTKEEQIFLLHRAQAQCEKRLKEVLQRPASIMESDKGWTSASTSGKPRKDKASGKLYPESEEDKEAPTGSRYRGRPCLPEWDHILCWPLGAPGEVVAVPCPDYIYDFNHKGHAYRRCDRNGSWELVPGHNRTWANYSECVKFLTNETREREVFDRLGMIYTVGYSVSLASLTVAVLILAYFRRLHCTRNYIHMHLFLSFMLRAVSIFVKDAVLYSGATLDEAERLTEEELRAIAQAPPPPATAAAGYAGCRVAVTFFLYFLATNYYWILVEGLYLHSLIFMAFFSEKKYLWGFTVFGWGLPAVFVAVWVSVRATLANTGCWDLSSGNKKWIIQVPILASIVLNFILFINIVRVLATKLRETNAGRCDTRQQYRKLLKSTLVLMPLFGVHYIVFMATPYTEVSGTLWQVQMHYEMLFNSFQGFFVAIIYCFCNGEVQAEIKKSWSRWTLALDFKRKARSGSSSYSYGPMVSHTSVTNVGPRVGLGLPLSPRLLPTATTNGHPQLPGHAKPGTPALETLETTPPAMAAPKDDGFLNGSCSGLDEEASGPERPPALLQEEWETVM
Test: In vitro cAMP signal activity in HKRK-B7 cells (LLC-PK1 cells overexpressing the human PTH1 receptor)
Type: cell-based
Conditions: HKRK-B7 cells, compound at 1×10^−3 M, cAMP produced as percentage of that produced by hPTH(1-34) at 100 nM

Structure (SMILES)	cAMP production activity (%)	cAMP production activity (%) (0.1 µM)
CC(=O)Nc1ccc(CCS(=O)(=O)N2CCC3(CC2)N=C(C2CCC(F)(CCCF)CC2)NC3=O)c(C)c1 (centres unmarked) [Compound 1073, N-[4-(2-{2-[4-fluoro-4-(3-fluoro-propyl)-cyclohexyl]-4-oxo-1,3,8-triaza-spiro[4.5]dec-1-ene-8-sulfonyl}-ethyl)-3-methyl-phenyl]-acetamide]	66%	
CC(=O)Nc1ccc(CCS(=O)(=O)N2CCC3(CC2)N=C(C2CCC(=CCC(F)F)CC2)NC3=O)c(C)c1 (centres unmarked) [Compound 1076, N-[4-(2-{2-[4-(3,3-difluoro-propylidene)-cyclohexyl]-4-oxo-1,3,8-triaza-spiro[4.5]dec-1-ene-8-sulfonyl}-ethyl)-3-methyl-phenyl]-acetamide]	88%	
CCCC=C1CCC(C2=NC3(CCN(S(=O)(=O)CCc4ccc(NC(C)=O)cc4C)CC3)C(=O)N2)CC1 (centres unmarked) [Compound 1079, N-(4-{2-[2-(4-Butylidene-cyclohexyl)-4-oxo-1,3,8-triaza-spiro[4.5]dec-1-ene-8-sulfonyl]-ethyl}-3-methyl-phenyl)-acetamide]	91%	
CCCCC#CCCCC1=NC2(CCN(S(=O)(=O)CCc3c(C)cc(N(C)C(N)=O)cc3C)CC2)C(=O)N1 [Compound 1081, 1-{3,5-Dimethyl-4-[2-(2-non-4-ynyl-4-oxo-1,3,8-triaza-spiro[4.5]dec-1-ene-8-sulfonyl)-ethyl]-phenyl}-1-methyl-urea]	53%	
CCCCCC#CCCC1=NC2(CCN([S@TB17](=O)(=O)CCc3c(C)cc(N(C)C(N)=O)cc3C)CC2)C(=O)N1 [Compound 1082, 1-{3,5-dimethyl-4-[2-(2-non-3-ynyl-4-oxo-1,3,8-triaza-spiro[4.5]dec-1-ene-8-sulfonyl)-ethyl]-phenyl}-1-methyl-urea]	22%	
CCCCCCCC#CC1=NC2(CCN([S@TB17](=O)(=O)CCc3c(C)cc(N(C)C(N)=O)cc3C)CC2)C(=O)N1 [Compound 1083, 1-{3,5-dimethyl-4-[2-(2-non-1-ynyl-4-oxo-1,3,8-triaza-spiro[4.5]dec-1-ene-8-sulfonyl)-ethyl]-phenyl}-1-methyl-urea]	113%	
Cc1cc(N(C)C(N)=O)cc(C)c1CC1(S(=O)(=O)N2CCC3(CC2)N=C(c2cccc(OC(F)(F)F)c2)NC3=O)CC1 [Compound 1084, 1-(3,5-Dimethyl-4-{1-[4-oxo-2-(3-trifluoromethoxy-phenyl)-1,3,8-triaza-spiro[4.5]dec-1-ene-8-sulfonyl]-cyclopropylmethyl}-phenyl)-1-methyl-urea]	13%	
Cc1cc(N(C)C(N)=O)cc(C)c1CC(F)(F)S(=O)(=O)N1CCC2(CC1)N=C(c1cccc(OC(F)(F)F)c1)NC2=O [Compound 1085, 1-(4-{2,2-Difluoro-2-[4-oxo-2-(3-trifluoromethoxy-phenyl)-1,3,8-triaza-spiro[4.5]dec-1-ene-8-sulfonyl]-ethyl}-3,5-dimethyl-phenyl)-1-methyl-urea]	100%	
CCCCCCCCCC1=NC2(CCN(S(=O)(=O)C(F)(F)Cc3c(C)cc(N(C)C(N)=O)cc3C)CC2)C(=O)N1 [Compound 1086, 1-{4-[2,2-Difluoro-2-(2-nonyl-4-oxo-1,3,8-triaza-spiro[4.5]dec-1-ene-8-sulfonyl)-ethyl]-3,5-dimethyl-phenyl}-1-methyl-urea]	151%	
Cc1cc(N(C)C(N)=O)cc(C)c1CCS(=O)(=O)N1CCC2(CC1)N=C(c1cccc(-c3ccccc3-c3ccccc3)c1)NC2=O [Compound 1087, 1-{3,5-Dimethyl-4-[2-(4-oxo-2-[1,1′;2′,1″]terphenyl-3-yl-1,3,8-triaza-spiro[4.5]dec-1-ene-8-sulfonyl)-ethyl]-phenyl}-1-methyl-urea]	97%	

Continued, values first:

cAMP production activity (%)	cAMP production activity (%) (0.1 µM)	Structure (SMILES)
68%		CC(=O)Nc1ccc(CCS(=O)(=O)N2CCC3(CC2)N=C([C@H]2CC[C@@H](CC=C(F)F)CC2)NC3=O)c(C)c1 [Compound 1068, N-[4-(2-{2-[4-(3,3-difluoro-allyl)-cyclohexyl]-4-oxo-1,3,8-triaza-spiro[4.5]dec-1-ene-8-sulfonyl}-ethyl)-3-methyl-phenyl]-acetamide]
79%		CC(=O)Nc1ccc(CCS(=O)(=O)N2CCC3(CC2)N=C([C@H]2CC[C@@H](CC(F)(F)C(F)(F)F)CC2)NC3=O)c(C)c1 [Compound 1069, N-[3-methyl-4-(2-{4-oxo-2-[4-(2,2,3,3,3-pentafluoro-propyl)-cyclohexyl]-1,3,8-triaza-spiro[4.5]dec-1-ene-8-sulfonyl}-ethyl)-phenyl]-acetamide]
69%		CC(=O)Nc1ccc(CCS(=O)(=O)N2CCC3(CC2)N=C([C@H]2CC[C@@H](C/C=C/F)CC2)NC3=O)c(C)c1 [Compound 1070, N-[4-(2-{2-[4-((E)-3-fluoro-allyl)-cyclohexyl]-4-oxo-1,3,8-triaza-spiro[4.5]dec-1-ene-8-sulfonyl}-ethyl)-3-methyl-phenyl]-acetamide]
60%		CC(=O)Nc1ccc(CCS(=O)(=O)N2CCC3(CC2)N=C([C@H]2CC[C@@H](CC(F)F)CC2)NC3=O)c(C)c1 [Compound 1071, N-[4-(2-{2-[4-(2,2-difluoro-ethyl)-cyclohexyl]-4-oxo-1,3,8-triaza-spiro[4.5]dec-1-ene-8-sulfonyl}-ethyl)-3-methyl-phenyl]-acetamide]
54%		CC(=O)Nc1ccc(CCS(=O)(=O)N2CCC3(CC2)N=C([C@H]2CC[C@@H](CCF)CC2)NC3=O)c(C)c1 [Compound 1072, N-[4-(2-{2-[4-(2-fluoro-ethyl)-cyclohexyl]-4-oxo-1,3,8-triaza-spiro[4.5]dec-1-ene-8-sulfonyl}-ethyl)-3-methyl-phenyl]-acetamide]
	66%	C#C[C@H]1CC[C@@H](C2=NC3(CCN(S(=O)(=O)CCc4ccc(NC(C)=O)cc4C)CC3)C(=O)N2)CC1 [Compound 1074, N-(4-{2-[2-(4-ethynyl-cyclohexyl)-4-oxo-1,3,8-triaza-spiro[4.5]dec-1-ene-8-sulfonyl]-ethyl}-3-methyl-phenyl)-acetamide]
69%		CC(=O)Nc1ccc(CCS(=O)(=O)N2CCC3(CC2)N=C(C2CCC(C(F)F)CC2)NC3=O)c(C)c1 (centres unmarked) [Compound 1075, N-(4-{2-[2-(4-difluoromethyl-cyclohexyl)-4-oxo-1,3,8-triaza-spiro[4.5]dec-1-ene-8-sulfonyl]-ethyl}-3-methyl-phenyl)-acetamide]
74%		CC(=O)Nc1ccc(CCS(=O)(=O)N2CCC3(CC2)N=C(C2CCC(CC(C)F)CC2)NC3=O)c(C)c1 (centres unmarked) [Compound 1077, N-[4-(2-{2-[4-(2-fluoro-propyl)-cyclohexyl]-4-oxo-1,3,8-triaza-spiro[4.5]dec-1-ene-8-sulfonyl}-ethyl)-3-methyl-phenyl]-acetamide]
74%		CC(=O)Nc1ccc(CCS(=O)(=O)N2CCC3(CC2)N=C(C2CCC(C(C)(C)F)CC2)NC3=O)c(C)c1 (centres unmarked) [Compound 1078, N-[4-(2-{2-[4-(1-Fluoro-1-methyl-ethyl)-cyclohexyl]-4-oxo-1,3,8-triaza-spiro[4.5]dec-1-ene-8-sulfonyl}-ethyl)-3-methyl-phenyl]-acetamide]
81%		CC(=O)Nc1ccc(CCS(=O)(=O)N2CCC3(CC2)N=C(C2CCC(CC(F)(F)C(F)(F)F)CC2)NC3=O)c(C)c1 (centres unmarked) [Compound 1080, N-[3-Methyl-4-(2-{4-oxo-2-[4-(2,2,3,3,3-pentafluoro-propyl)-cyclohexyl]-1,3,8-triaza-spiro[4.5]dec-1-ene-8-sulfonyl}-ethyl)-phenyl]-acetamide]
